Measured values: PMC9490236, “Accurate de novo design of membrane-traversing macrocycles” (Cell, 2022)
Several values for one entry are separate records, joined by “and”; a condition that tells them apart may be missing. Equal entries are not always repeated. Where two headings read alike, the source gives them in different places.

Assay: Pharmacokinetics and oral bioavailability of D8.3.p1 and D10.1 in Balb/C female mice (PO, SQ, IV)
Assay type: in vivo
Protocol: In vivo bioavailability assays were conducted in mice and rats. D8.3.p1 and D10.1 were studied in female Balb/C mice by van Voorhis group at University of Washington. D11.2 was evaluated in Sprague Dawley (SD) rats by Robert Griffin’s group at Takeda Pharmaceuticals. D11.3 was studied in the male swiss albino mice by the contract research organization, GVK Biosciences Pvt. Ltd., Hyderabad, India. All animals used in these studies were handled in strict accordance with practices made to minimize suffering. All animal experiments conducted at the University of Washington, USA, and Takeda Pharmaceuticals, USA were approved by the Institutional Animal Care and Use Committee. Animal studies at GVK Biosciences were reviewed and approved by the Institutional Animal Ethics Committee of GVK Biosciences. We selected four designed macrocycles with diverse structures and in vitro rates of permeability for in vivo oral bioavailability studies in the rodent models. Due to the intensive resource requirements for such studies, these studies were conducted by three different research groups. D8.3.p1 and D10.1 were studied in female Balb/C mice by van Voorhis group at University of Washington. D11.2 was evaluated in Sprague Dawley (SD) rats by Robert Griffin’s group at Takeda Pharmaceuticals. D11.3 was studied in the male swiss albino mice by the contract research organization, GVK Biosciences Pvt. Ltd., Hyderabad, India. […] Blood samples were collected at multiple time points and plasma was separated from whole blood using centrifugation and stored at -80°C. […] Samples were mixed, centrifuged, and supernatant harvested for LC-MS analysis. For RP-HPLC analysis, peptides were evaluated using Agilent ZORBAX Eclipse Plus C18 1.8 μm, 2.1 mm x 50 mm and Waters Xevo TQ-S micro Triple Quadrupole/ACQUITY UPLC H-Class. […] Pharmacokinetic parameters were modeled using the Phoenix WinNonlin software package. […]

[1] = D10.1 PO 12.2 mg/kg, individual mice M1, M2, M3, 12.2 mg/kg
[2] = D10.1 PO 12.2 mg/kg, mean n=3, 12.2 mg/kg
[3] = D10.1 SQ 12.2 mg/kg, individual mice M1, M2, M3
[4] = D10.1 SQ 12.2 mg/kg, individual mice M2, M3 (M1 NA)

Structure (SMILES): CC[C@H](C)[C@@H]1NC(=O)[C@@H](CC(C)C)NC(=O)[C@H](CC(C)C)N(C)C(=O)[C@H](Cc2ccccc2)NC(=O)CN(C)C(=O)[C@@H]2CCCN2C(=O)[C@H](C(C)C)NC(=O)[C@H](Cc2ccccc2)N(C)C(=O)[C@H]2CCCN2C(=O)[C@H](CC(C)C)NC1=O [Design D10.1, DLEU ILE LEU DPRO *PHE VAL PRO *GLY PHE *LEU]
- Plasma level (D10.1 PO 12.2 mg/kg, 15 min, individual mice M1, M2, M3, 12.2 mg/kg): 2260 nM
- Plasma level (D10.1 PO 12.2 mg/kg, 15 min, mean n=3, 12.2 mg/kg): 2580 nM
- Plasma level (D10.1 PO 12.2 mg/kg, 30 min, individual mice M1, M2, M3, 12.2 mg/kg): 2490 nM and 3640 nM and 2640 nM
- Plasma level (D10.1 PO 12.2 mg/kg, 30 min, mean n=3, 12.2 mg/kg): 2920 nM
- Plasma level (D10.1 PO 12.2 mg/kg, 60 min, individual mice M1, M2, M3, 12.2 mg/kg): 2140 nM and 1640 nM and 1570 nM
- Plasma level (D10.1 PO 12.2 mg/kg, 60 min, mean n=3, 12.2 mg/kg): 1780 nM
- Plasma level (D10.1 PO 12.2 mg/kg, 120 min, mean n=3, 12.2 mg/kg): 720 nM
- Plasma level (D10.1 PO 12.2 mg/kg, 240 min, mean n=3, 12.2 mg/kg): 160 nM
- Plasma level (D10.1 PO 12.2 mg/kg, 360 min, individual mice M1, M2, M3, 12.2 mg/kg): 0 nM and 100 nM
- Plasma level (D10.1 PO 12.2 mg/kg, 360 min, mean n=3, 12.2 mg/kg): 70 nM
- Plasma level (D10.1 PO 12.2 mg/kg, 1440 min, individual mice M1, M2, M3): 0 nM
- Plasma level (D10.1 PO 12.2 mg/kg, 1440 min, mean n=3): 0 nM
- Tmax (D10.1 PO 12.2 mg/kg, individual mice M1, M2, M3): 0.5 h
- AUC0-∞ [1]: 226.62 µmol·min/L and 337.03 µmol·min/L and 276.18 µmol·min/L
- AUC(0-t) [1]: 216.96 µmol·min/L and 327.78 µmol·min/L and 266.45 µmol·min/L
- Cl/F [1]: 0.000944 L/min and 0.000635 L/min and 0.000775 L/min
- T1/2 [1]: 1.051 h and 1.132 h
- Cmax (D10.1 PO 12.2 mg/kg, individual mice M1, M2, M3, 12.2 mg/kg, read-out: Cmax): 3640 nM and 2640 nM
- AUC0-∞ [2]: 279.94 µmol·min/L
- AUC(0-t) [2]: 270.4 µmol·min/L
- Plasma level (D10.1 SQ 12.2 mg/kg, 15 min, mean n=3): 2530 nM
- Plasma level (D10.1 SQ 12.2 mg/kg, 30 min, individual mice M1, M2, M3): 1810 nM and 3690 nM and 5150 nM
- Plasma level (D10.1 SQ 12.2 mg/kg, 30 min, mean n=3): 3550 nM
- Plasma level (D10.1 SQ 12.2 mg/kg, 60 min, individual mice M1, M2, M3): 1870 nM and 4880 nM and 5030 nM
- Plasma level (D10.1 SQ 12.2 mg/kg, 60 min, mean n=3): 3930 nM
- Plasma level (D10.1 SQ 12.2 mg/kg, 360 min, mean): 2290 nM
- Plasma level (D10.1 SQ 12.2 mg/kg, 1440 min, individual mice M1, M2, M3): 0 nM
- Plasma level (D10.1 SQ 12.2 mg/kg, 1440 min, mean n=3): 10 nM
- AUC(0-t) [3]: 730.93 µmol·min/L and 3578.6 µmol·min/L and 1329.09 µmol·min/L
- Tmax [3]: 6 h and 1 h
- Cmax (D10.1 SQ 12.2 mg/kg, individual mice M1, M2, M3, read-out: Cmax): 2400 nM and 4880 nM and 5150 nM
- AUC0-∞ [4]: 3585.94 µmol·min/L and 2148.41 µmol·min/L
- Cl/F [4]: 5.97e-05 L/min and 9.96e-05 L/min
- T1/2 [4]: 4.3302 h
- AUC0-∞ (D10.1 SQ 12.2 mg/kg, mean): 2867.17 µmol·min/L
- Half-life T1/2 (D10.1 SQ 12.2 mg/kg, mean): 3.7563 ± 0.8117 h
- AUC(0-t) (D10.1 SQ 12.2 mg/kg, mean n=3): 1879.54 µmol·min/L
- clearance (female, Balb/C, mouse, plasma, iv, […], D10.1 IV […], individual mice M1, M2, M3, read-out: CLP): 3.46 mL/min/kg
- half-life (female, Balb/C, mouse, plasma, iv, […], D10.1 IV […], individual mice M1, M2, M3, read-out: T1/2): 1.21 h
- Vd (female, Balb/C, mouse, plasma, iv, […], D10.1 IV […], individual mice M1, M2, M3, read-out: VSS): 0.32 L/kg
- Vd (female, Balb/C, mouse, plasma, iv, […], D10.1 IV […], individual mice M1, M2, M3, read-out: VZ): 0.36 L/kg
- half-life (female, Balb/C, mouse, plasma, iv, […], D10.1 IV […], mean n=3, read-out: Half-life T1/2): 1.12 ± 0.113 h
- clearance (female, Balb/C, mouse, plasma, iv, […], D10.1 IV […], mean n=3, read-out: Plasma clearance CLP): 3.26 ± 0.37 mL/min/kg
- Vd (female, Balb/C, mouse, plasma, iv, […], D10.1 IV […], mean n=3, read-out: Volume of distribution @ steady state VSS): 0.25 ± 0.08 L/kg
- Vd (female, Balb/C, mouse, plasma, iv, […], D10.1 IV […], mean n=3, read-out: Volume of distribution during elimination phase VZ): 0.32 ± 0.07 L/kg
- level at time molar at 0.25 h (female, Balb/C, mouse, plasma, po, 12.2 mg/kg, D10.1 PO 12.2 mg/kg, 15 min, individual mice M1, M2, M3, read-out: Plasma level): 2220 nM
- level at time molar at 2 h (female, Balb/C, mouse, plasma, po, 12.2 mg/kg, D10.1 PO 12.2 mg/kg, 120 min, individual mice M1, M2, M3, read-out: Plasma level): 540 nM
- level at time molar at 4 h (female, Balb/C, mouse, plasma, po, 12.2 mg/kg, D10.1 PO 12.2 mg/kg, 240 min, individual mice M1, M2, M3): 130 nM
- level at time molar at 6 h (female, Balb/C, mouse, plasma, po, 12.2 mg/kg, D10.1 PO 12.2 mg/kg, 360 min, individual mice M1, M2, M3, read-out: Plasma level): 100 nM
- Cmax (female, Balb/C, mouse, plasma, po, 12.2 mg/kg, D10.1 PO 12.2 mg/kg, individual mice M1, M2, M3, read-out: Cmax): 2490 nM
- half-life (female, Balb/C, mouse, plasma, po, 12.2 mg/kg, D10.1 PO 12.2 mg/kg, individual mice M1, M2, M3, read-out: T1/2): 0.831 h
- Tmax (female, Balb/C, mouse, plasma, po, 12.2 mg/kg, D10.1 PO 12.2 mg/kg, individual mice M1, M2, M3, read-out: Tmax (converted)): 0.5 h
- half-life (female, Balb/C, mouse, plasma, po, 12.2 mg/kg, D10.1 PO 12.2 mg/kg, mean n=3, read-out: Half-life T1/2): 1 ± 0.156 h
- Cmax (female, Balb/C, mouse, plasma, po, 12.2 mg/kg, D10.1 PO 12.2 mg/kg, mean n=3, read-out: Max concentration Cmax): 2920 ± 630 nM
- Tmax (female, Balb/C, mouse, plasma, po, 12.2 mg/kg, D10.1 PO 12.2 mg/kg, mean n=3, read-out: Time of max concentration Tmax (converted)): 0.5 h
- bioavailability (female, Balb/C, mouse, plasma, po, 12.2 mg/kg, read-out: Oral bioavailability F): 7.48 ± 1.79%
- level at time molar at 6 h (female, Balb/C, mouse, plasma, sc, 12.2 mg/kg, D10.1 SQ 12.2 mg/kg, 360 min, individual mice M1, M3 (M2 ND), read-out: Plasma level): 2400 nM
- level at time molar at 24 h (female, Balb/C, mouse, plasma, sc, 12.2 mg/kg, D10.1 SQ 12.2 mg/kg, 1440 min, individual mice M1, M2, M3, read-out: Plasma level): 30 nM
- AUC(0-inf) (female, Balb/C, mouse, plasma, sc, D10.1 SQ 12.2 mg/kg, mean): 47.8 µM·h
- AUC(0-t) (female, Balb/C, mouse, plasma, sc, D10.1 SQ 12.2 mg/kg, mean n=3, read-out: AUC0-t (converted)): 1880 µmol·min/L
- half-life (female, Balb/C, mouse, plasma, subcutaneous, 12.2 mg/kg, D10.1 SQ 12.2 mg/kg, individual mice M2, M3 (M1 NA), read-out: T1/2): 3.18 h
- AUC(0-inf) (female, Balb/C, mouse, plasma, D10.1 PO 12.2 mg/kg, mean n=3): 4.67 µM·h
- AUC(0-t) (female, Balb/C, mouse, plasma, D10.1 PO 12.2 mg/kg, mean n=3, read-out: AUC0-t (converted)): 270 µmol·min/L
- CL/F (female, Balb/C, mouse, plasma, D10.1 PO 12.2 mg/kg, mean n=3, read-out: Apparent clearance Cl/F): 0.785 mL/min
- half-life (mouse, in vivo, sc, 12.2 mg/kg, D10.1 after SQ administration, read-out: plasma half-life T1/2 (converted)): 3.75 h
